These are literature values, as cited in patent US20160045473A1, “Biological Basis Of Adult Wellness” (priority 2012, published 2016).

The conditions of the data set: healthy volunteers, at least one study.

The structures appear in SMILES notation.

For `O=C(O)[C@@H]1CCCN1` [proline, L-proline], the absorption entry is “well absorbed”.
